Assay results from patent US7687609B2, “Galectin-glycosaminoglycan complex and method for controlling galectin activity” (National Institute of Advanced Industrial Science and …, priority 2006, dated 2010).

Key:
Galectin-9N [1] = target: T1, Galectin-9N (Homo sapiens, UniProt O00182); test: FAC affinity test on galectin-immobilized column; format: binding; details: pyridyl-aminated carbohydrate; galectin-9N immobilized 3.6 mg/ml; less than 5 μl = below interaction detection limit
T1 construct: N and C respectively represent N-terminal side carbohydrate-recognition domain and C-terminal side carbohydrate-recognition domain; made in house
Method in brief: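 Galectin-9N was coupled to NHS Sepharose at 3.6 mg/ml and packed into a stainless steel miniature column (2 mm inner diameter, 10 mm long). This column was mounted on an HPLC system for frontal affinity chromatography of pyridyl-aminated glycosaminoglycan carbohydrates, with eluates followed by fluorescence. Interaction strength was expressed as V−V0, the sample elution volume minus that of pyridyl-aminated GlcNAc or pullulan controls. Values under 5 μl fell below the detection limit.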

Galectin-3 [2] = target: T2, Galectin-3 (Homo sapiens, UniProt P17931); test: FAC affinity test on galectin-immobilized column; format: binding; details: pyridyl-aminated carbohydrate; galectin-3 immobilized 0.5 mg/ml; less than 5 μl = below interaction detection limit
T2 construct: made in house
Method in brief: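 Human galectin-3 was coupled to NHS Sepharose at 0.5 mg/ml and packed into a stainless steel miniature column (2 mm inner diameter, 10 mm length) run on an HPLC system for frontal affinity chromatography. Pyridyl-aminated carbohydrates were eluted with fluorescence detection. V−V0 was calculated against a PA-GlcNAc or pyridyl-aminated pullulan control. Values below 5 μl were treated as below the interaction detection limit.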

Galectin-1 = target: T3, Galectin-1 (Homo sapiens, UniProt P09382); test: FAC affinity test on galectin-immobilized column; format: binding; details: pyridyl-aminated carbohydrate; galectin-1 immobilized 0.8 mg/ml; less than 5 μl = below interaction detection limit
T3 construct: made in house
Method in brief: (§1)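 Frontal affinity chromatography on HPLC using galectins immobilized on NHS Sepharose (galectin-1 0.8, 8N 3.6, 8C 4.0, 9C 3.0 mg/ml carrier) in 2×10 mm columns. Pyridyl-aminated glycans detected by fluorescence; V−V0 versus PA-GlcNAc (polysaccharides) or PA-pullulan (oligosaccharides) indexes interaction, below 5 μl taken as undetectable.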

Galectin-9C = target: T4, Galectin-9C (Homo sapiens, UniProt O00182); test: FAC affinity test on galectin-immobilized column; format: binding; details: pyridyl-aminated carbohydrate; galectin-9C immobilized 3.0 mg/ml; less than 5 μl = below interaction detection limit
T4 construct: N and C respectively represent N-terminal side carbohydrate-recognition domain and C-terminal side carbohydrate-recognition domain; made in house
Method in brief: as §1

Galectin-3 [3] = target: T2, Galectin-3; test: FAC competitive inhibition test, binding of galectin-3 with LNnT; details: 5.0 nM PA-LNnT; for V2 − V0: V1 − V0 30.6 μl
Procedure: (§2) A model test on a competitive inhibition was carried out by FAC, in which binding of a galectin molecule with a carbohydrate which binds to the galectin molecule is inhibited by a glycosaminoglycan molecule. The FAC was carried out in accordance with the above-described example (1). In addition, as a model carbohydrate which is known to be bound to the galectin molecule, a pyridylamination product of lacto-N-neotetraose (LNnT hereinafter, Gal β1-4 GlcNAc β1-3 Gal β1-4 Glc, purchased from Seikagaku Corporation) was used.
(§3) In the test, 5.0 nM in final concentration of PA-LNnT sample solution was mixed with various concentration of glycosaminoglycan molecule (not pyridyl-aminated, namely an inhibitory carbohydrate) to measure the eluate volume (V2 value) by FAC, and the inhibition ratio (%) was calculated as follows from the eluate volume (V1 value) before the mixing and the eluate volume (V0 value) of a negative control sample. Inhibition ratio (%)=100×(V1−V2)/(V1−V0) Formula 1
(§4) In this connection, the unlabeled (not pyridyl-aminated) CH4, CH6, CH10, HA4 and CSA4 were respectively prepared at Seikagaku Corporation in accordance with a conventionally known method.

Galectin-9N [4] = target: T1, Galectin-9N; test: FAC competitive inhibition test, binding of galectin-9N with LNnT; details: for Inhibition ratio / V2 − V0: 5.0 nM PA-LNnT; for V2 − V0: V1 − V0 20.3 μl
Procedure: as §2, §3, §4

[5] = final conc. 10 μM unlabeled inhibitor
[6] = final conc. 1 μM unlabeled inhibitor
[7] = final conc. 5 μM unlabeled inhibitor
[8] = final conc. 50 μM unlabeled inhibitor
[9] = final conc. 250 μM unlabeled inhibitor

T1 sequence (O00182 17-148 limits assumed): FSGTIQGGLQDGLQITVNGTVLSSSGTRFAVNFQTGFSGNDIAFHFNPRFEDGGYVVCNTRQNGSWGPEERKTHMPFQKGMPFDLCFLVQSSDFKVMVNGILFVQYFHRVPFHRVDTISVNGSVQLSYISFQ
T2 sequence (P17931 whole entry): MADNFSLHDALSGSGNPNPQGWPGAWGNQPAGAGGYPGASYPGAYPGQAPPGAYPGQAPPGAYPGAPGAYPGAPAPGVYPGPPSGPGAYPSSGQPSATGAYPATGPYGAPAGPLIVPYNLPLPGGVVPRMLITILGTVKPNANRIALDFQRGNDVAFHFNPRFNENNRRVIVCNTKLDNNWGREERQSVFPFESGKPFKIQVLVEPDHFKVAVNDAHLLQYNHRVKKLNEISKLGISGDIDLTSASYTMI
T3 sequence (P09382 whole entry): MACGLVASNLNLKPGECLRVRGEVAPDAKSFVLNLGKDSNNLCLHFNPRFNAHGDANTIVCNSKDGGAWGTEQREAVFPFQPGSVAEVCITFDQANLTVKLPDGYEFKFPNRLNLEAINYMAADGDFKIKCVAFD
T4 sequence (O00182 227-355 limits assumed): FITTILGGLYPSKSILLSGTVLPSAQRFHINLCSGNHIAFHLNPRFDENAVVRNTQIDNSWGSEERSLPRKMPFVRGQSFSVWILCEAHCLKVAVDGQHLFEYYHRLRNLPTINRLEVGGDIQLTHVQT

CC(=O)N[C@H]1[C@H](O[C@H]2[C@H](O)[C@@H](O)[C@H](O[C@H]3[C@@H](O)[C@@H](CO)O[C@@H](O[C@H]4[C@H](O)[C@@H](O)[C@H](O[C@H]5[C@@H](O)[C@@H](CO)O[C@@H](O[C@H]6[C@H](O)[C@@H](O)[C@H](O[C@H]7[C@@H](O)[C@@H](CO)O[C@@H](O[C@H]8[C@H](O)[C@@H](O)[C@H](O[C@H]9[C@@H](O)[C@@H](CO)OC(O)[C@@H]9NC(C)=O)O[C@@H]8C(=O)O)[C@@H]7NC(C)=O)O[C@@H]6C(=O)O)[C@@H]5NC(C)=O)O[C@@H]4C(=O)O)[C@@H]3NC(C)=O)O[C@@H]2C(=O)O)O[C@H](CO)[C@H](O)[C@@H]1O[C@@H]1O[C@H](C(=O)O)[C@@H](O)[C@H](O)[C@H]1O (stereo partly drawn) [CH10, GlcA β1-3 (GalNAc β1-4 GlcA β1-3)4 GalNAc]
V − V0 Value (Galectin-9N [1]): 171.5 µL
V − V0 Value (Galectin-3 [2]): 11.8 ± 3.3 µL
V − V0 Value (Galectin-1): <5.0 µL
V − V0 Value (Galectin-9C): <5.0 µL
Inhibition ratio (Galectin-3 [3]; [5]): 38.2%
V2 − V0 (Galectin-3 [3]; [5]): 18.9 µL

CC(=O)N[C@H]1[C@H](O[C@H]2[C@H](O)[C@@H](O)[C@H](O[C@H]3[C@@H](O)[C@@H](CO)OC(O)[C@@H]3NC(C)=O)O[C@@H]2C(=O)O)O[C@H](CO)[C@H](O)[C@@H]1O[C@@H]1O[C@H](C(=O)O)[C@@H](O)[C@H](O)[C@H]1O (stereo partly drawn) [CH4, GlcA β1-3 GalNAc β1-4 GlcA β1-3 GalNAc]
inhibition of binding of galectin-9N with LNnT (in words) (Galectin-9N [4]; Table 5): inhibited by CH4 concentration-dependently
Inhibition ratio (Galectin-9N [4]; [6]): 16.7%
V2 − V0 (Galectin-9N [4]; [6]): 16.9 µL
Inhibition ratio (Galectin-9N [4]; [7]): 26.1%
V2 − V0 (Galectin-9N [4]; [7]): 15.0 µL
Inhibition ratio (Galectin-9N [4]; [5]): 32.5%
V2 − V0 (Galectin-9N [4]; [5]): 13.7 µL
Inhibition ratio (Galectin-9N [4]; [8]): 71.4%
V2 − V0 (Galectin-9N [4]; [8]): 5.8 µL
V − V0 Value (Galectin-9N [1]): 45.3 ± 4.8 µL
V − V0 Value (Galectin-3 [2]): <5.0 µL
V − V0 Value (Galectin-1): <5.0 µL
Inhibition ratio (Galectin-3 [3]; [5]): 12.7%
V2 − V0 (Galectin-3 [3]; [5]): 26.7 µL
Inhibition ratio (Galectin-3 [3]; [8]): 32.0%
V2 − V0 (Galectin-3 [3]; [8]): 20.8 µL
Inhibition ratio (Galectin-3 [3]; [9]): 48.0%
V2 − V0 (Galectin-3 [3]; [9]): 15.9 µL
